The values that follow come from patent US20080213404A1, “Hif Modulating Compounds and Methods of Use Thereof” (priority 2005, published 2008).

The subject of one assay is NO production. Put plainly: Nitrite determination (Griess assay) in macrophage supernatants under GAS stimulation. In kind it is cell-based, mouse. The note with it: 1.5 mM AG; macrophages cultured 20 hours. The protocol:
(§1) FIG. 6 provides graphs showing HIF-1 and vHL regulate NO production. (A) Total RNA from WT, HIF-1−/−, and vHL−/− bone marrow-derived macrophages infected with GAS isolated 3 hours after antibiotic treatment. iNOS mRNA was quantified by RT-PCR. WT, nonstimulated macrophages were arbitrarily set to 1 unit following normalization to ribosomal RNA levels. (B) NO production under GAS stimulation ±1.5 mM AG ([…]; Calbiochem). BM-derived macrophages were cultured for 20 hours, conditioned supernatant collected, and NO […] levels measured by the Griess assay. (C) Mim enhances iNOS expression of WT macrophages stimulated by GAS. Total RNA from WT and HIF-1-null BM-derived macrophages infected with GAS±Mim isolated 3 hours after antibiotic treatment. iNOS mRNA was quantified by RT-PCR. WT, noninfected macrophages were arbitrarily set to 1 unit following normalization to ribosomal RNA levels. Statistical analyses performed by unpaired Student's t test. **P<0.01; ***P<0.001. […]
The concentration of nitrite (NO2-), the stable oxidized derivative of NO, was determined in 100-μl aliquots of cell culture supernatants transferred to 96-well plates. Essentially, 100 μl of Griess reagent (1% sulfanilamide, 0.1% naphthylene diamine dihydrochloride, 2% H3PO4) was added per well, and the absorbances were measured at 540 nm in a microplate reader. […]

Another assay concerns TNF-α. Briefly: TNF-α ELISA of conditioned macrophage supernatants after GAS. It counts as cell-based, mouse. The note with it: WT, HIF-1α and vHL-deficient macrophages, 1 hour after antibiotic treatment. The protocol:
FIG. 7 is a series of graphs illustrating HIF-1 and vHL regulate TNF-production. (A) Total RNA from WT, HIF-1−/−, and vHL−/− bone marrow-derived macrophages infected with GAS were isolated 3 hours after antibiotic treatment. TNF-mRNA was quantified by RT-PCR. WT, nonstimulated macrophages were arbitrarily set to 1 unit following normalization to ribosomal RNA levels. (B) inhibition of iNOS decreases TNF-production. BM-derived macrophages were cultured for 1 hour after antibiotic treatment. Conditioned supernatant was harvested and TNF-protein analyzed by ELISA (eBiosciences). Statistical analyses were performed using unpaired Student's t test. ***P<0.001.
We next examined the expression pattern of TNF-α, a cytokine involved in the augmentation of inflammatory responses to microbial infection. Indeed, development of GAS-necrotizing fasciitis has been reported as a complication of anti-TNF-α therapy (37). […] Whereas basal levels of TNF-α protein expression were similar in WT, HIF-1α, and vHL-null macrophages, loss of HIF-1α also strongly depressed the rapid secretion of TNF-α protein in response to GAS (FIG. 7B).

The subject of the next assay is HIF-1α. Briefly: Western blot of HIF-1α in macrophages exposed to GAS. It counts as cell-based, mouse. To be noted: WT macrophages, normalized to β-actin. The protocol: as §1
Peritoneal neutrophils or bone marrow-derived macrophages inoculated with GAS were harvested and washed with PBS, and proteins were extracted with HTAB or RIPA buffers. Protein concentration was calculated using the Bio-Rad assay (Bio-Rad Laboratories). […] Immunoreactive proteins were detected using the ECL chemiluminescent system (Amersham Biosciences).
(In general: In western blotting, separated proteins are transferred to a membrane and probed.)

Assay [1] concerns intracellular killing of GAS by macrophages. Put plainly: Bacterial killing assay (antibiotic protection): intracellular killing of GAS by macrophages. It counts as cell-based, mouse. To be noted: for intracellular killing of GAS by WT macrophages: preincubation 5 hours, L-Mim 800 μM, OH-pyridone 150 μM, desferrioxamine mesylate 100 μM, CoCl2 100 μM. As for the experimental part: FIG. 2 is a series of graphs showing HIF-1 regulates bactericidal activity of myeloid cells. (A) Intracellular killing of GAS by WT, HIF-1-null, or vHL-null macrophages. BM-derived macrophages were inoculated with GAS at an MOI equal to 2.5 and cultured under normoxic (white bars) or hypoxic (0.1%; black bars) conditions for 1 hour after antibiotic treatment. Statistical analyses were performed using unpaired Student's t test. *P<0.05; **P<0.01. (B) Loss of HIF-1 in macrophages decreases intracellular killing of GAS and of P. aeruginosa. WT (black bars) or HIF-1-null (white bars) BM-derived macrophages were incubated with bacteria for 1 hour before antibiotics were added. Intracellular killing was analyzed by determination of viable CFUs in macrophage lysates at the specified time points after bacterial uptake. Experiments were performed in triplicate. […] Experiment shown is representative of 3 repeated studies. (C) Loss of vHL in BM-derived macrophages increases intracellular killing of GAS and of P. aeruginosa. Experiments were performed in triplicate and are representative of 3 repeated studies. […] (D) Pharmacologic agonists of HIF-1 increase myeloid cell bactericidal activity. Preincubation (5 hours) with desferrioxamine mesylate (DFO), CoCl2, OH-pyridone, or Mim increased the intracellular killing capacity of WT macrophages against GAS. ***P<0.001.
To assess the functional consequences of HIF-1α activation, we used an antibiotic protection assay to calculate intracellular killing of GAS by WT macrophages compared with killing by those derived from the bone marrow of HIF-1α-lysMcre mice (11). Here, targeted deletion of the HIF-1α gene has been created via crosses into a background of cre expression driven by the lysozyme M promoter (lysMcre), allowing specific deletion of the transcription factor in the myeloid lineage (11). […] Macrophage killing of the Gram-negative bacterium P. aeruginosa was likewise impaired upon deletion of HIF-1α (FIG. 2B).
Finally, we treated WT macrophages with a number of known pharmacologic inducers of HIF-1α that each act directly or indirectly to inhibit prolyl hydroxylase targeting of HIF-1α for ubiquitination. These included the iron chelator desferrioxamine, CoCl2, L-Mim, and 3-hydroxy-1,2-dimethyl-4(1H)-pyridone (OH-pyridone) (13). The addition of each of these agents increased intracellular killing of GAS by WT macrophages (FIG. 2D).
Bacterial killing assays. GAS were grown to logarithmic phase in THB to OD600=1×10^8 cfu/ml. Bacteria were added to macrophages at an MOI of 2.5 bacteria/cell and intracellular killing assessed using an antibiotic protection assay (11, 53) or, alternatively, total cell-associated bacteria measured by vigorous washing with PBS×3 to remove nonadherent bacteria. At the end of the assay, total cell lysate was plated on THB agar for enumeration of CFU. […] To assess macrophage viability, the monolayers were washed with PBS and incubated with 0.04% Trypan blue for 10 minutes at 37° C. As specified in the FIG. 2 legend and in Results, macrophages were preincubated with L-Mim (800 μM), OH-pyridone (150 μM), desferrioxamine mesylate (100 μM), or CoCl2 (100 μM) for 5 hours prior to the killing assay; each drug level was known to be sufficient for HIF-1 induction (13). Absence of bacterial inhibition was tested by incubating the drugs at the above concentrations with GAS (˜105) at 37° C. for 1-24 hours. Mouse model of GAS infection.

Assay [2] has as its system HIF-1α-dependant transcription (HRE-luciferase reporter). Briefly: HRE-luciferase reporter assay in BM-derived macrophages of HRE-luciferase transgenic mice. The note with it: 18 hours; L-Mim 800 μM, desferrioxamine mesylate 150 μM, CoCl2 150 μM. It counts as cell-based, mouse. (In general: A reporter such as luciferase makes a cellular process visible.)
Method: (C) HRE-luciferase BM-derived macrophages were incubated either with GAS or heat-inactivated GAS at an MOI equal to 5-10 under hypoxia (1%) or with the addition of mimosine (800 μM), desferrioxamine mesylate (150 μM), or CoCl2 (150 μM) for 18 hours.
We measured HIF-1α-dependant transcription in macrophages derived from HRE-luciferase transgenic mice, which contain a luciferase reporter gene driven by 6 consecutive specific HRE sequences.
Macrophages were derived from the marrow of femurs and tibiae of transgenic HRE-luciferase mice as described above. The luciferase reporter gene in these mice is driven by 6 specific HRE sequences. Cells were incubated with GAS or heat-inactivated GAS for 18 hours. […] Cells were then washed out with PBS, and luciferase assay was performed by using the Bright-Glo Luciferase Assay kit (Promega Corp.). Luciferase activities were measured using a luminometer.
A further assay concerns iNOS. Briefly: iNOS mRNA by RT-PCR in BM-derived macrophages infected with GAS. It counts as cell-based, mouse. The note with it: for expression of iNOS mRNA: WT macrophages infected with GAS, RNA isolated 3 hours after antibiotic treatment.
Assay [3] deals with vincomycin-resistant Enterococcus species. The note with it: cultured human monocytic cells.
In assay [4] the test system is Staphylococcus aureus. Put plainly: Bactericidal capacity of freshly isolated human blood. It counts as cell-based.
For assay [5], the system named is Staphylococcus aureus. Briefly: Bactericidal capacity of cultured human monocytic cells against S. aureus. It counts as cell-based.
The test system of assay [6] is vincomycin-resistant Enterococcus species. The note with it: freshly isolated human neutrophils.
Assay [7] has as its system Staphylococcus aureus. Put plainly: Bactericidal capacity of freshly isolated human neutrophils against S. aureus. It counts as cell-based.

Counter-ions that a name gives are not always drawn. Like-named read-outs stand apart in the source and are kept apart here.

Method for iNOS: (A) Total RNA from WT, HIF-1−/−, and vHL−/− bone marrow-derived macrophages infected with GAS isolated 3 hours after antibiotic treatment. iNOS mRNA was quantified by RT-PCR. WT, nonstimulated macrophages were arbitrarily set to 1 unit following normalization to ribosomal RNA levels. […] Total RNA from WT and HIF-1-null BM-derived macrophages infected with GAS±Mim isolated 3 hours after antibiotic treatment. iNOS mRNA was quantified by RT-PCR. WT, noninfected macrophages were arbitrarily set to 1 unit following normalization to ribosomal RNA levels. Statistical analyses performed by unpaired Student's t test. **P<0.01; ***P<0.001.
First-strand synthesis was obtained from 1 μg of total RNA isolated with Trizol reagent (Molecular Research Center Inc.) by the SuperScript system (Invitrogen Corp.), employing random primers.

For the compound `Cc1ccc(S(=O)(=O)O)cc1.NNC(N)=NO` [AG, 1-amino-2-hydroxyguanidine, p-toluenesulfate], in the assay on NO production, the “production of NO in response to GAS” value is listed as “significantly inhibited”. In the assay with TNF-α, the “TNF-α protein in conditioned supernatants” value is given as “reduced amounts”. The “GAS-induced increase of HIF-1α levels” value in the assay with HIF-1α is “blocked”. In addition, in [1] (HIF-1α-null macrophages, presence of iNOS inhibitor), the “bactericidal activity of HIF-1α-null macrophages” value was “did not further suppress”. Also, the “bactericidal activity of WT macrophages” value in assay [1] (WT macrophages, presence of iNOS inhibitor) is given as “inhibited”.
With `[Cl][Co][Cl]` [CoCl2, cobalt chloride], the “intracellular killing of GAS by WT macrophages” value (“intracellular killing of GAS” below) in [1] is listed as “increased”. Besides, the “increase in luciferase reporter activity” value in [2] is given as 3 fold.
`N[C@@H](Cn1ccc(=O)c(O)c1)C(=O)O` [L-Mim, 3-Hydroxy-4-oxo-1(4H)-pyridinealanine]: the “increased expression of iNOS mRNA” value with iNOS (HIF-1α-null macrophages infected with GAS) is on record as “very low”. The “expression of iNOS mRNA” value with iNOS is recorded as “greatly increased”; with iNOS (listed as Mim) it was “enhances”. The “bactericidal capacity against vincomycin-resistant Enterococcus species” value in [3] and in assay [6] was “increase” throughout. For the same compound, the “bactericidal capacity against Staphylococcus aureus” value in the assay with Staphylococcus aureus [4], in the assay on Staphylococcus aureus [5] and in the assay with Staphylococcus aureus [7] was “increase” in each case. The “intracellular killing of GAS” value in assay [1] is on record as “increased”.
Turning to `Cc1c(O)c(=O)ccn1C` [OH-pyridone, 3-hydroxy-1,2-dimethyl-4(1H)-pyridone], the “intracellular killing of GAS” value in [1] is reported as “increased”.
Take `CC(=O)N(O)CCCCCNC(=O)CCC(=O)N(O)CCCCCNC(=O)CCC(=O)N(O)CCCCCN` [desferrioxamine mesylate]: in assay [1], the “intracellular killing of GAS” value is recorded as “increased”. Moreover, the “increase in luciferase reporter activity” value in assay [2] is reported as 3 fold.
